The numbers were not newly measured in patent US20050233005A1, “Use of glycosaminoglycans and zinc derivatives for insect bites, stings and the like” (priority 2004, published 2005), which cites them from elsewhere.

For series [1], the system named is pruritus caused by mosquito bites. To be noted: administered prophylactically (Karppinen et al., 2002).
For series [2] the following is noted: topical applications and oral administration, animal models and humans (SCCNFP report, 2003).
The test system of a further series is porcine wounds. The conditions noted are these: topical application (Tarnow et al., 1994; Agren et al., 2001).
The next series concerns skin wound. To be noted: topical application (Chen and Abatengelo, 1999).
Another series has as its system diabetic foot wounds. To be noted: in wound dressings (Vazquez et al., 2003).

Turning to `O=C(O)COCCN1CCN(C(c2ccccc2)c2ccc(Cl)cc2)CC1` (stereo not shown) [cetirizine], in series [1], the “pruritus caused by mosquito bites” value is reported as “significantly decrease”.

For the molecule `CC(C)(C)c1ccc(C(=O)CCCN2CCC(OC(c3ccccc3)c3ccccc3)CC2)cc1` [ebastine], the “pruritus caused by mosquito bites” value in series [1] was “significantly decrease”.

For the molecule `[O]=[Zn]` [zinc oxide], the toxicity entry in series [2] is on record as “little or no toxicity”. The “release of growth factors” value with porcine wounds is given as “enhanced”.

For the molecule `O=S(=O)([O-])[O-].[Zn+2]` [zinc sulphate], the toxicity result in series [2] was “little or no toxicity”.

In the case of Hyaluronic acid [HA], the skin wound healing result in the series on skin wound is given as “accelerate”. Also, the “healing of diabetic foot wounds” value in the series with diabetic foot wounds is reported as “beneficial”.
